Data published in paper PMC8105722 (The Journal of Experimental Medicine, 2021).

Molecular target: Rv0812 (Mycobacterium tuberculosis, UniProt Q79FW0)
Sequence (Q79FW0 whole entry): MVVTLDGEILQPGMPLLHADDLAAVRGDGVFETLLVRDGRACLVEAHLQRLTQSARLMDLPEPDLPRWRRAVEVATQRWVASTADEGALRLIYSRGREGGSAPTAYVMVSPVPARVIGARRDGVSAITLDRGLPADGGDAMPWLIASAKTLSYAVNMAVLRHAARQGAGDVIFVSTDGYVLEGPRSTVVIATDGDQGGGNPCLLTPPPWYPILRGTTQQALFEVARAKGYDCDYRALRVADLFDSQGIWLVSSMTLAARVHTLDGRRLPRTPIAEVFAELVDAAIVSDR

Structure (SMILES): Cc1ncc(COP(=O)(O)O)c(C=O)c1O [PLP]
- X-ray crystal structure (cocrystal with 0.2 mM PLP): PLP was fit into the corresponding electron density
